Experimental data as given in publication PMC9213889 (Frontiers in Chemistry, 2022).

How the values were obtained:
[1] = molecular target: α-glucosidase from Saccharomyces cerevisiae (EC 3.2.1.20) (Saccharomyces cerevisiae, UniProt P53341); assay: biochemical; format: biochemical; conditions: for IC50: mean ± SD, quadruplicate, PBS pH 6.8, 37°C, 5% DMSO, read-out: α-glucosidase inhibition (IC50 μM)
[2] = molecular target: T1, α-amylase from hog pancreas (EC 3.2.1.1) (Sus scrofa, UniProt P00690); assay: α-amylase inhibition assay (starch, DNS, absorbance at 540 nm)
T1 sequence (P00690 16-511): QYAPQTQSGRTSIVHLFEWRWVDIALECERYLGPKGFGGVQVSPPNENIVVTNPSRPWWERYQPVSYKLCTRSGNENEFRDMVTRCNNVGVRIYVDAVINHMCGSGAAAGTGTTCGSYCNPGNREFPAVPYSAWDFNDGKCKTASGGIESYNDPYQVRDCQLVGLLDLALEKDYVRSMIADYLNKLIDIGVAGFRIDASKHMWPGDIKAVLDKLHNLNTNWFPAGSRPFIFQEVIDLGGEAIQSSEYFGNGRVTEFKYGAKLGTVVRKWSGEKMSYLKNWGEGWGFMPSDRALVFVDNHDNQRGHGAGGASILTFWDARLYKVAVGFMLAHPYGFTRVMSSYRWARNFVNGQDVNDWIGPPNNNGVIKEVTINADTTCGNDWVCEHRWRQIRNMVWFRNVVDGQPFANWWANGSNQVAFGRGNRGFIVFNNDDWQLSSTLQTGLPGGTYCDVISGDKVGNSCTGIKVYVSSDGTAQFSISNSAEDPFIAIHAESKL

3T3-L1 cells = assay: Cell cytotoxicity assay, 3T3-L1; format: cell-based; conditions: under a concentration of 100 μM
HepG2 cells = assay: Cell cytotoxicity assay, HepG2; format: cell-based; conditions: under a concentration of 100 μM
α-glucosidase = molecular target: T2, α-glucosidase (Saccharomyces cerevisiae, UniProt P53341); assay: Inhibition kinetics assay against α-glucosidase; format: biochemical
T2 construct: purchased Sigma-Aldrich
Method: The α-glucosidase inhibition assay of analogs 4a–4s was carried out as in previously reported methods, with minor modifications ([Xu et al., 2020]). Then, 10 μL α-glucosidase and 10 μL test sample (dissolved in DMSO) were added into 130 μL PBS (50 mM phosphate saline buffer, pH 6.8) and incubated for 10 min at 37°C. After adding 50 μL pNPG, the absorbance change of the mixture at 405 nm was monitored. Then, the percent inhibition was calculated ([Ademiluyi and Oboh, 2013]). All experiments were carried out in quadruplicate.
(§1) The inhibition kinetics of 4i and 4o against α-glucosidase and α-amylase, respectively, was investigated using a similar aforementioned inhibition assay method. The enzyme inhibitory kinetics was obtained by the plots of the enzymatic reaction rate vs. enzyme concentration with or without the inhibitor, and the substrate inhibitory kinetics was measured using the Lineweaver–Burk plot of the enzymatic reaction rate vs. substrate concentration with or without the inhibitor.

α-amylase = molecular target: T3, α-amylase (Sus scrofa, UniProt P00690); assay: Inhibition kinetics assay against α-amylase; format: biochemical, hog
T3 construct: α-amylase from hog pancreas (EC 3.2.1.1); purchased Sigma-Aldrich; host or cells: hog pancreas
T3 sequence (P00690 16-511): T1 sequence (P00690 16-511)
Method: All experiments were carried out in quadruplicate.
as §1

[3] = plots of enzymatic reaction rate vs. enzyme concentration pass through the origin

T2 sequence (P53341 whole entry): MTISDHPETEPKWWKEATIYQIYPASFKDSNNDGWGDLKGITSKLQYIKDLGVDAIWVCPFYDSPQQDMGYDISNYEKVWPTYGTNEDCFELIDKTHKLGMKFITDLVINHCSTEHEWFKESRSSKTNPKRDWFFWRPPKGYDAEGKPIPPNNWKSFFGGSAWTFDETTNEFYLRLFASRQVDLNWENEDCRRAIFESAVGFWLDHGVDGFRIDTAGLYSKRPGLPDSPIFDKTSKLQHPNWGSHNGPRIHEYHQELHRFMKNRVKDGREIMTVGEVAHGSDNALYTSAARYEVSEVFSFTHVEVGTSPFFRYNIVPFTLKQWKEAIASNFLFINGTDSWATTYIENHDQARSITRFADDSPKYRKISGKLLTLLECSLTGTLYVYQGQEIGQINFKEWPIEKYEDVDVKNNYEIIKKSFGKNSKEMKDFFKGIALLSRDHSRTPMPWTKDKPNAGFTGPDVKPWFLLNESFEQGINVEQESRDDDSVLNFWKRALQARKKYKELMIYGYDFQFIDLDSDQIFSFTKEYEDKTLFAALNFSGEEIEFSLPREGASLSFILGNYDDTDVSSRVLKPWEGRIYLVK
α-glucosidase from Saccharomyces cerevisiae (EC 3.2.1.20), sequence (P53341 whole entry): as above

SMILES | IC50 [1] | IC50 [2] | melting point | other results
CC1(C)CC[C@]2(C(=O)O)CC[C@]3(C)C(=CCC4[C@@]5(C)C/C(=C\c6ccccc6)[C@H](O)C(C)(C)C5CC[C@]43C)C2C1 (some centres unmarked) [Compound 4a] | 1.9 ± 0.31 µM | 41.2 ± 2.99 µM | – | –
Cc1ccccc1/C=C1\C[C@@]2(C)C(CC[C@]3(C)C2CC=C2C4CC(C)(C)CC[C@]4(C(=O)O)CC[C@]23C)C(C)(C)[C@H]1O (some centres unmarked) [Compound 4b] | 0.61 ± 0.09 µM | 19.8 ± 1.22 µM | 210 to 211 °C | –
COc1cccc(/C=C2\C[C@@]3(C)C(CC[C@]4(C)C3CC=C3C5CC(C)(C)CC[C@]5(C(=O)O)CC[C@]34C)C(C)(C)[C@H]2O)c1 (some centres unmarked) [Compound 4f] | 1.63 ± 0.1 µM | 60.3 ± 1.88 µM | 200 to 201 °C | –
COc1ccc(/C=C2\C[C@@]3(C)C(CC[C@]4(C)C3CC=C3C5CC(C)(C)CC[C@]5(C(=O)O)CC[C@]34C)C(C)(C)[C@H]2O)cc1 (some centres unmarked) [Compound 4g] | 3.96 ± 0.21 µM | 59.1 ± 1.98 µM | 296 to 297 °C | –
CC1(C)CC[C@]2(C(=O)O)CC[C@]3(C)C(=CCC4[C@@]5(C)C/C(=C\c6ccccc6F)[C@H](O)C(C)(C)C5CC[C@]43C)C2C1 (some centres unmarked) [Compound 4h] | 0.83 ± 0.04 µM | 18.5 ± 1.39 µM | 165 to 166 °C | –
CC1(C)CC[C@]2(C(=O)O)CC[C@]3(C)C(=CCC4[C@@]5(C)C/C(=C\c6cccc(F)c6)[C@H](O)C(C)(C)C5CC[C@]43C)C2C1 (some centres unmarked) [Compound 4i] | 0.4 ± 0.02 µM | 20.3 ± 2.18 µM | 157 to 158 °C | α-glucosidase inhibition, times stronger than acarbose [1]: ~1,663 times; Cell cytotoxicity against 3T3-L1 cells (3T3-L1 cells): non-cytotoxic effect; Cell cytotoxicity against HepG2 cells (HepG2 cells): non-cytotoxic effect; Inhibition type against α-glucosidase (α-glucosidase; Lineweaver–Burk plots, lines intersect in the second quadrant): mixed-type inhibitor; Reversibility of inhibition on α-glucosidase (α-glucosidase; [3]): reversible
CC1(C)CC[C@]2(C(=O)O)CC[C@]3(C)C(=CCC4[C@@]5(C)C/C(=C\c6ccccc6Cl)[C@H](O)C(C)(C)C5CC[C@]43C)C2C1 (some centres unmarked) [Compound 4k] | 0.88 ± 0.04 µM | 45.4 ± 2.16 µM | 219 to 220 °C | –
CC1(C)CC[C@]2(C(=O)O)CC[C@]3(C)C(=CCC4[C@@]5(C)C/C(=C\c6cccc(Cl)c6)[C@H](O)C(C)(C)C5CC[C@]43C)C2C1 (some centres unmarked) [Compound 4l] | 0.45 ± 0.02 µM | 19.4 ± 0.73 µM | 242 to 243 °C | –
CC1(C)CC[C@]2(C(=O)O)CC[C@]3(C)C(=CCC4[C@@]5(C)C/C(=C\c6ccccc6[N+](=O)[O-])[C@H](O)C(C)(C)C5CC[C@]43C)C2C1 (some centres unmarked) [Compound 4q] | 1.17 ± 0.1 µM | 20.2 ± 1.2 µM | 197 to 198 °C | –
CC1(C)CC[C@]2(C(=O)O)CC[C@]3(C)C(=CCC4[C@@]5(C)C/C(=C\c6cccc([N+](=O)[O-])c6)[C@H](O)C(C)(C)C5CC[C@]43C)C2C1 (some centres unmarked) [Compound 4r] | 1.08 ± 0.04 µM | 20.8 ± 1.88 µM | 191 to 192 °C | –

The next lines start with results.

IC50 [1] | IC50 [2] | melting point | SMILES | other results
0.86 ± 0.05 µM | 51.1 ± 2.55 µM | 128 to 129 °C | Cc1cccc(/C=C2\C[C@@]3(C)C(CC[C@]4(C)C3CC=C3C5CC(C)(C)CC[C@]5(C(=O)O)CC[C@]34C)C(C)(C)[C@H]2O)c1 (some centres unmarked) [Compound 4c] | –
2.41 ± 0.08 µM | 62.2 ± 1.89 µM | 146 to 147 °C | Cc1ccc(/C=C2\C[C@@]3(C)C(CC[C@]4(C)C3CC=C3C5CC(C)(C)CC[C@]5(C(=O)O)CC[C@]34C)C(C)(C)[C@H]2O)cc1 (some centres unmarked) [Compound 4d] | –
1.92 ± 0.13 µM | 20.5 ± 2.29 µM | 200 to 201 °C | COc1ccccc1/C=C1\C[C@@]2(C)C(CC[C@]3(C)C2CC=C2C4CC(C)(C)CC[C@]4(C(=O)O)CC[C@]23C)C(C)(C)[C@H]1O (some centres unmarked) [Compound 4e] | –
1.23 ± 0.07 µM | 15.7 ± 1.53 µM | 226 to 227 °C | CC1(C)CC[C@]2(C(=O)O)CC[C@]3(C)C(=CCC4[C@@]5(C)C/C(=C\c6ccc(F)cc6)[C@H](O)C(C)(C)C5CC[C@]43C)C2C1 (some centres unmarked) [Compound 4j] | –
1.73 ± 0.16 µM | 20.5 ± 1.09 µM | 196 to 197 °C | CC1(C)CC[C@]2(C(=O)O)CC[C@]3(C)C(=CCC4[C@@]5(C)C/C(=C\c6ccc(Cl)cc6)[C@H](O)C(C)(C)C5CC[C@]43C)C2C1 (some centres unmarked) [Compound 4m] | –
0.72 ± 0.06 µM | 16.8 ± 1.04 µM | 234 to 235 °C | CC1(C)CC[C@]2(C(=O)O)CC[C@]3(C)C(=CCC4[C@@]5(C)C/C(=C\c6ccccc6Br)[C@H](O)C(C)(C)C5CC[C@]43C)C2C1 (some centres unmarked) [Compound 4n] | –
0.52 ± 0.02 µM | 9.59 ± 0.58 µM | 197 to 198 °C | CC1(C)CCC2(C(=O)O)CCC3(C)C(=CCC4C5(C)CC(=Cc6cccc(Br)c6)C(O)C(C)(C)C5CCC43C)C2C1 (centres unmarked) [Compound 4o] | Cell cytotoxicity against 3T3-L1 cells (3T3-L1 cells): non-cytotoxic effect; Cell cytotoxicity against HepG2 cells (HepG2 cells): non-cytotoxic effect; Inhibition type against α-amylase (α-amylase; Lineweaver–Burk plots, lines intersect in the first quadrant): mixed-type inhibitor; Reversibility of inhibition on α-amylase (α-amylase; [3]): reversible
1.18 ± 0.14 µM | 19.5 ± 1.85 µM | 224 to 225 °C | CC1(C)CC[C@]2(C(=O)O)CC[C@]3(C)C(=CCC4[C@@]5(C)C/C(=C\c6ccc(Br)cc6)[C@H](O)C(C)(C)C5CC[C@]43C)C2C1 (some centres unmarked) [Compound 4p] | –
1.22 ± 0.14 µM | 55.6 ± 2.52 µM | 219 to 220 °C | CC1(C)CC[C@]2(C(=O)O)CC[C@]3(C)C(=CCC4[C@@]5(C)C/C(=C\c6ccc([N+](=O)[O-])cc6)[C@H](O)C(C)(C)C5CC[C@]43C)C2C1 (some centres unmarked) [Compound 4s] | –
